US20090196950A1, “METHODS OF FEEDING PIGS AND PRODUCTS COMPRISING BENEFICIAL FATTY ACIDS” (Monsanto Company, priority 2008, published 2009)

Test: 35 day feeding study in pigs: fatty acid composition of pork tissues (belly, loin, ham, skin) by GC-FID of FAMEs
Assay type: in vivo
Protocol: A 35 day study was conducted to determine whether pigs fed a diet containing SDA could produce meat with improved fatty acid profiles including increased levels of SDA, EPA, and DHA.
A control diet (Treatment 1) formulated to meet or exceed NRC (1998) nutrient requirements for pigs in the late finishing phase (approximately 80-120 kg BW containing 1.14% corn oil and no added SDA ethyl ester (70% w/w SDA) were fed ad libitum during an acclimation period of at least 1 week duration. Ethoxyquin was included in all diets as an antioxidant at a concentration of 150 parts per million (0.015%, as-fed basis), the maximum level allowed by FDA regulation in animal feeds. The same control diet was fed ad libitum to the control pigs (pen receiving Treatment 1) throughout a 35-day test period. Four test diets (Treatment 2, 3, 4, and 5) with SDA ethyl ester substituted for corn oil to provide 0.2, 0.4, 0.6 and 0.8% (w/w SDA active ingredient, as-is basis) were fed ad libitum to one pen of four pigs throughout the 35-day test period Table 4). All diets were fed in meal form.
All pigs were individually weighed at initiation of the acclimation and test period, and immediately prior to slaughter. Feed consumption per pen was recorded. […] Live weights prior to slaughter and hot carcass weights were recorded. […] Prior to removing the sample for sensory and fatty and proximate analysis from the belly the firmness of the belly was evaluated using a flop test. At 24 hr postmortem fat thickness (10th rib), loin eye area (10th rib), visual color, firmness and marbling, Minolta color (L*a*b*), pH, and drip loss were measured. […]
In order to evaluate the fatty acid composition of pig tissues (loin, ham, skin, and belly), samples were stored at −80° C. until evaluation. […] Resultant fatty acid methyl esters (FAME's) were separated by capillary gas chromatography (GC) and detected by flame ionization detector (FID). […] Quantification was achieved by using an internal standard (c15:0 triacylglyceride (TAG) for pig tissue samples and c17:0 TAG for diet samples). […]

CC/C=C\C/C=C\C/C=C\C/C=C\CCCCC(=O)O [SDA, stearidonic acid]
enrichment of SDA, ETA, and EPA in belly, loin, ham, and skin tissues (0.2-0.8% SDA in feed, 35 days): enriched in belly, loin, ham, and skin tissues in a dose dependent manner | levels of SDA, ETA, EPA, DPA in belly, loin, ham and skin tissues and DHA in ham tissue as compared to the control (SDA supplementation, 35 days): higher levels | omega 3 fatty acid enrichment in belly, loin, ham and skin tissues as compared to the control (pigs fed SDA for the last 35 days prior to slaughter): significant increase
